Experimental data: patent publication US5081117A (priority 1989, dated 1992)
Structures can show the parent of a compound that is named as a salt.

Target: T1, acetylcholinesterase (AChE), rat striatum (Rattus norvegicus, UniProt P37136)
T1 construct: corpora striata dissected free, weighed and homogenized in 19 volumes; from tissue; host or cells: homogenate of corpora striata of male Wistar rats
T1 sequence (P37136 32-614): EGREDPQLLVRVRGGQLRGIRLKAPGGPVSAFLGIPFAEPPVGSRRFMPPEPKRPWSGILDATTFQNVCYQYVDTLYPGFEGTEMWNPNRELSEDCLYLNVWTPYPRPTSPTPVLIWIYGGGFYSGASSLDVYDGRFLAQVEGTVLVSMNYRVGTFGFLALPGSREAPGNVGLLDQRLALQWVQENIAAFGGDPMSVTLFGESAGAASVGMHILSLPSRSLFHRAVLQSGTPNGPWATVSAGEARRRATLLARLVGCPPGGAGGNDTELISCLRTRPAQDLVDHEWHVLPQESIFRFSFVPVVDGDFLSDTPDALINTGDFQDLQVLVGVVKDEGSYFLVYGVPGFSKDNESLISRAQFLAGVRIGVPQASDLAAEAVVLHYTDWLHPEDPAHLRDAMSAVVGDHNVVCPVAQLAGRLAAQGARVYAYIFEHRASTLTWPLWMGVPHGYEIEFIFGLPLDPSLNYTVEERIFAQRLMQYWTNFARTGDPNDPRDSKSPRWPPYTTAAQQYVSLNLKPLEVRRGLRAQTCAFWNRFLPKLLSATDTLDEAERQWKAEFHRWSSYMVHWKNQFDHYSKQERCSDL
Assay: In vitro inhibition of acetylcholinesterase activity in rat striatum (modified Ellman method)
Assay type: biochemical, Male Wistar rats
From the text: Cholinesterases are found throughout the body, both in the brain and in serum. However, only brain acetylcholinesterase (AChE) distribution is correlated with central cholinergic innervation. […] We have determined in vitro inhibition of acetylcholinesterase activity in rat striatum according to the method described below.
In Vitro Inhibition of Acetylcholinesterase Activity in Rat Striatum
The method described below was used in this invention for assaying anticholinesterase activity. This is a modification of the method of Ellman et al., Biochem. Pharmacol. 7, 88 (1961).
1. 0.05M Phopsphate buffer, pH 7.2
(a) 6.85 g NaH2 PO4 .cndot.H2 O/100 ml distilled H2 O
(c) add (a) to (b) until pH reaches 7.2
(a) 9.9 mg 5,5-dithiobisnitrobenzoic acid (DTNB) (0.25 mM)
(b) 99 mg s-acetylthiocholine chloride (5 mM)
(c) q.s. to 100 ml with 0.05M phosphate buffer, pH 7.2 (reagent 1)
3. For most assays, a 2 mM stock solution of the test drug is made up in a suitable solvent and serially diluted such that the final concentration in the preincubation step ranges from 10^-3 to 10^-6 M. Different concentrations may be used depending on the potency of the drug.
Male Wistar rats are decapitated, brains rapidly removed, corpora striata dissected free, weighed and homogenized in 19 volumes (approximately 7 mg protein/ml) of 0.05M phosphate buffer, pH 7.2 using a Potter-Elvehjem homogenizer. A 50 microliter aliquot of the homogenate is added to 50 microliter vehicle of various concentrations of the test drug and preincubated for 10 minutes at room temperature.
1. For routine IC50 determinations the Abbott Bichromatic Analyzer, ABA-100, is used to determine acetylcholinesterase activity.
Incubation temperature: 30° C.
Reaction direction: down:endpoint
Syringe plate: 1:101 dilution
Following the 10 minute preincubation of the tissue (enzyme) with the inhibitor, the samples are mixed with the substrate chromogen buffer by the ABA-100. Using the indicated instrument settings the ABA-100 automatically reads the color reaction and prints out the results in enzyme units after 15 minutes.
2. The enzyme activity can also be measured with a Gilford 250 spectrophotometer. This method is used for more accurate kinetic measurements.
Reagents are added to the reference and sample side of a split curvette as follows:
The unhibited activity of the enzyme (tissue homogenate) is first determined. Test drugs are made up in a suitable solvent and added in suitable dilutions to the buffer vehicle. The reaction rate is determined by the slope of the recorded absorbance change. The actual rate (moles/liter/min) can be calculated as described in the following formula
rate (moles/liter/min)=slope/(1.36×10^4)

**Q.** For CN1CC[C@@]2(C)c3c(OC(=O)NC4CCCCC4)cccc3N(C)[C@@H]12 (relative stereo) [cis-(±)-1,2,3,3a,8,8a-Hexahydro-1,3a,8-trimethylpyrrolo[2,3-b]indol-4-ylcyclohexyl carbamate fumarate], which IC50 is on record?
**A.** The IC50 was 550 nM.

**Q.** How did the IC50 turn out when CNC(=O)Oc1cccc2c1[C@]1(C)CCN(C)[C@@H]1N2C (relative stereo) [cis-(±)-1,2,3,3a,8,8a-Hexahydro-1,3a,8-trimethylpyrrolo[2,3-b]indol-4-ylmethylcarbamate fumarate] was run?
**A.** Its IC50 is 60 nM.

**Q.** For CN1CC[C@@]2(C)c3ccc(OC(=O)NC4CCCCC4)cc3N(C)[C@@H]12 (relative stereo) [cis-(±)-1,2,3,3a,8,8a-Hexahydro-1,3a,8-trimethylpyrrolo[2,3-b]indol-6-ylcyclohexyl carbamate salicylate], which IC50 is on record?
**A.** Its IC50 is 5500 nM.

**Q.** With CNC(=O)Oc1ccc2c(c1)N(C)[C@H]1N(C)CC[C@@]21C (relative stereo) [cis-(±)-1,2,3,3a,8,8a-Hexahydro-1,3a,8-trimethylpyrrolo[2,3-b]indol-6-ylmethylcarbamate salicylate] as the molecule, how does the IC50 read?
**A.** Its IC50 is 230 nM.

**Q.** For CNC(=O)Oc1cc2c(cc1Br)[C@]1(C)CCN(C)[C@@H]1N2C (relative stereo) [cis-(±)-5-Bromo-1,2,3,3a,8,8a-hexahydro-1,3a,8-trimethylpyrrolo[2,3-b]indol-6-yl methyl carbamate sesquifumarate], which IC50 is on record?
**A.** Its IC50 is 13 nM.
